{"source": "patent US12428380B2", "about": "(PSYLO PTY LTD, priority 2023, dated 2025)", "key": {"5-HT2A": {"molecular_target": "T1, 5-HT2A (Homo sapiens, UniProt P28223)", "T1 construct": "host or cells: HEK293", "T1 sequence (P28223 whole entry)": "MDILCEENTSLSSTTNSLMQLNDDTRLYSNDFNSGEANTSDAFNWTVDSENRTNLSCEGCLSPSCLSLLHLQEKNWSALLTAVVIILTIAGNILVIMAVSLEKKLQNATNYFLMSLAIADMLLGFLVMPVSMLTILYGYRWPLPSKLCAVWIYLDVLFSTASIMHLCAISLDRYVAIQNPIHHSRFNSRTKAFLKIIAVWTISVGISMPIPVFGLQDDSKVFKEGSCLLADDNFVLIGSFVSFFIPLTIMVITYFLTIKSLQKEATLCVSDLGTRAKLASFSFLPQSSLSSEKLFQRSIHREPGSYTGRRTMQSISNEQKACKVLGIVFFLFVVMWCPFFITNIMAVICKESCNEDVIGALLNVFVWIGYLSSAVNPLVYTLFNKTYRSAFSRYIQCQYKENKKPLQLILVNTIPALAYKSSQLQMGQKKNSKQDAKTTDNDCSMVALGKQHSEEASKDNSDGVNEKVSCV", "experiment": "FLIPR Ca2+ flux functional assay, 5-HT2A (HEK293)", "assay_type": "cell-based", "conditions": "HEK293 cells expressing 5-HT2A; for Emax: HEK293, agonist activity; for EC50: agonist activity"}, "5-HT2C": {"molecular_target": "T2, 5-HT2C (Homo sapiens, UniProt P28335)", "T2 construct": "host or cells: HEK293", "T2 sequence (P28335 33-458)": "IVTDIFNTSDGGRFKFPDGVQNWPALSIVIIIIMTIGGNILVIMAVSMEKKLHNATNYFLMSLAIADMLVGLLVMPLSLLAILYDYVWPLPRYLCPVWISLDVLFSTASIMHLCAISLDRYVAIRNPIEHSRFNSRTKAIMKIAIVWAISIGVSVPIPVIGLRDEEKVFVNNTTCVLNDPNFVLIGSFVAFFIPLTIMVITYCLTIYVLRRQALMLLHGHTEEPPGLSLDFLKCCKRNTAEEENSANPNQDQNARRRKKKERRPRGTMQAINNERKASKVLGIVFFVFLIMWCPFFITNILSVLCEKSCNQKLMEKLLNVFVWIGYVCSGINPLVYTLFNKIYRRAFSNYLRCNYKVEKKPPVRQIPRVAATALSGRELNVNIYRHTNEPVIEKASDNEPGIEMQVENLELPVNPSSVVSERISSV", "experiment": "FLIPR Ca2+ flux functional assay, 5-HT2C (HEK293)", "assay_type": "cell-based", "conditions": "HEK293 cells expressing 5-HT2C; for Emax: HEK293, agonist activity"}, "5-HT2B [1]": {"molecular_target": "T3, 5-HT2B (Homo sapiens, UniProt P41595)", "T3 construct": "host or cells: CHO-K1", "T3 sequence (P41595 whole entry, species assumed)": "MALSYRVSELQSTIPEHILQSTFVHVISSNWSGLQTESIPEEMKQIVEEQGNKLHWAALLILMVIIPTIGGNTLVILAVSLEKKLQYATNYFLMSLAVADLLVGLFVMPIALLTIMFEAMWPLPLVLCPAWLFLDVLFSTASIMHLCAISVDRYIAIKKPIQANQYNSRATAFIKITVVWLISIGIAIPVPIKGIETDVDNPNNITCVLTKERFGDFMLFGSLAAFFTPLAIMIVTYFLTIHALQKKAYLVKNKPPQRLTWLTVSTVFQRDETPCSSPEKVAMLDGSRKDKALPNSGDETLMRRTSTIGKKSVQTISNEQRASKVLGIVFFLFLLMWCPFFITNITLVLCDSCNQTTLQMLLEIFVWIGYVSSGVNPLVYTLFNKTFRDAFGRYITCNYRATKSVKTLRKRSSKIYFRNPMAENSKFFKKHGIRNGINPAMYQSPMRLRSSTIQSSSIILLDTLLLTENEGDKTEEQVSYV", "experiment": "Activation in a similar Ca2+ flux assay at a single concentration, 5-HT2B", "assay_type": "cell-based", "conditions": "head prints 10 µM", "description": "Activity at 5-HT2A, 5-HT2B and 5-HT2C receptors was determined using a FLIPR Ca2+ flux assay at WuXi AppTec Co. Ltd. (Hong Kong) Discovery Biology Unit according to their standard protocols. Briefly, stably transfected cells expressing the receptor of interest (HEK293 for 5-HT2A and 5-HT2C; CHO-K1 for 5-HT2B) were grown and plated in a 384 well plate and incubated at 37° C. and 5% CO2 overnight. A 250 mM stock solution of probenecid in FLIPR calcium assay buffer (10 mL) was freshly prepared and combined with a fluorescent dye (Fluo-4 Direct) to give a final assay concentration of 2.5 mM. Reference compounds were 4-fold serially diluted and the screening compounds were 3-fold serially diluted in 100% DMSO for 10 points using Agilent Bravo, and 750 nL was added to a 384 well compound plate using Echo along with 30 μL assay buffer. The fluorescent dye was then added to the assay plate along with assay buffer to a final volume of 40 μL. The cell plate was incubated for 50 min at 37° C. and 5% CO2 and placed into the FLIPR Tetra along with the compound plate. 10 μL of references and compounds were then transferred from the compound plate into the cell plate and the fluorescent signal was read.\nActivation data are provided in a similar assay tested at a single 10 μM concentration."}, "ICR mice": {"tested_on": "ICR mice", "experiment": "Acute restraint stress - tail suspension test (Example 51a)", "assay_type": "in vivo, mouse", "conditions": "male ICR mice after 5 h acute restraint stress, IP, tested 10 min after treatment, FIGS. 6 and 7", "experimental": "Male ICR mice (23±3 g) were purchased from BioLASCO (Taipei, Taiwan) at 4-5 weeks of age and allowed 5-7 days to acclimate to the animal research facility at Pharmacology Discovery Services (Taipei, Taiwan). Mice were housed in groups of 10 in a large cage (47×25×15 cm) on a 12-hour light cycle (lights on: 0700) and provided ad libitum food and water except during acute restraint stress and tail-suspension testing. Temperature was maintained at 20-24° C., and all rooms (colony and testing rooms) had similar lighting intensity. […] All experiments were conducted between 0900 to 1700 local time, during the light phase. […]\nTail Suspension Test (TST) Procedure: Mice were individually suspended on the edge of a shelf, 58 cm above a tabletop, using adhesive tape placed approximately 1 cm from the tip of the tail, for a total duration of 7 minutes. Using a stopwatch, the experimenters blinded to treatment groups recorded the duration of immobility (defined as hanging passively and motionless) during the 5 minutes spanning from 2-7 minutes. The data from 0-2 minutes was not recorded. […]"}, "5-HT2B [2]": {"molecular_target": "T3, 5-HT2B", "experiment": "FLIPR Ca2+ flux functional assay, 5-HT2B (CHO-K1)", "assay_type": "cell-based", "conditions": "CHO-K1 cells expressing 5-HT2B; for Emax: CHO-K1, agonist activity"}}, "data": [{"smiles": "COc1cc2c(CCN(C)C)n[nH]c2cc1F", "note": "[Example A5, 2-(6-fluoro-5-methoxy-1H-indazol-3-yl)-N,N-dimethylethan-1-amine]", "values": [{"measurement": "Emax", "setting": "5-HT2A", "result": 87, "unit": "%"}, {"measurement": "EC50", "setting": "5-HT2A", "result": 44.1, "unit": "nM"}, {"measurement": "Emax", "setting": "5-HT2C", "result": 105, "unit": "%"}, {"measurement": "EC50", "setting": "5-HT2C; agonist activity", "result": 281, "unit": "nM"}, {"measurement": "5-HT2B % Activation @ 10 µM", "setting": "5-HT2B [1]", "result": 44, "unit": "%"}, {"measurement": "immobility time in tail suspension test", "setting": "ICR mice", "result": "decrease the immobility time"}]}, {"smiles": "Fc1ccc2[nH]nc(CCN3CCCC3)c2c1F", "note": "[Example A73, 4,5-difluoro-3-(2-(pyrrolidin-1-yl)ethyl)-1H-indazole]", "values": [{"measurement": "Emax", "setting": "5-HT2A", "result": 87, "unit": "%"}, {"measurement": "EC50", "setting": "5-HT2A", "result": 768, "unit": "nM"}, {"measurement": "Emax", "setting": "5-HT2C", "result": 70, "unit": "%"}, {"measurement": "EC50", "setting": "5-HT2C; agonist activity", "result": 1780, "unit": "nM"}, {"measurement": "5-HT2B % Activation @ 10 µM", "setting": "5-HT2B [1]", "result": 18, "unit": "%"}]}, {"smiles": "COc1ccccc1CNCCc1n[nH]c2ccc(F)c(F)c12", "note": "[Example A74, 2-(4,5-difluoro-1H-indazol-3-yl)-N-(2-methoxybenzyl)ethan-1-amine]", "values": [{"measurement": "Emax", "setting": "5-HT2A", "result": 89, "unit": "%"}, {"measurement": "EC50", "setting": "5-HT2A", "result": 59.5, "unit": "nM"}, {"measurement": "Emax", "setting": "5-HT2C", "result": 95, "unit": "%"}, {"measurement": "EC50", "setting": "5-HT2C; agonist activity", "result": 133, "unit": "nM"}, {"measurement": "5-HT2B % Activation @ 10 µM", "setting": "5-HT2B [1]", "result": 0, "unit": "%"}]}, {"smiles": "CN(C)CCc1n[nH]c2cccc(O)c12", "note": "[Example P-6]", "values": [{"measurement": "Emax", "setting": "5-HT2A", "result": 66.4, "unit": "%"}, {"measurement": "EC50", "setting": "5-HT2A", "result": 43.1, "unit": "nM"}, {"measurement": "5-HT2B Emax", "setting": "5-HT2B [2]; agonist activity", "result": 0.34, "unit": "%"}, {"measurement": "5-HT2C Emax", "setting": "5-HT2C; agonist activity", "result": "−0.79", "unit": "%"}]}, {"smiles": "CN(C)CCc1n[nH]c2ccccc12", "note": "[Example P-7]", "values": [{"measurement": "Emax", "setting": "5-HT2A", "result": -0.3, "unit": "%"}, {"measurement": "Emax", "setting": "5-HT2B [2]", "result": 0.17, "unit": "%"}, {"measurement": "Emax", "setting": "5-HT2C", "result": 40.2, "unit": "%"}]}, {"smiles": "COc1ccc2[nH]nc(CCN(C)C)c2c1", "note": "[Example P-8, 2-(5-methoxy-1H-indazol-3-yl)-N,N-dimethylethan-1-amine]", "values": [{"measurement": "Emax", "setting": "5-HT2A", "result": 70, "unit": "%"}, {"measurement": "Emax", "setting": "5-HT2B [2]", "result": 17.9, "unit": "%"}, {"measurement": "Emax", "setting": "5-HT2C", "result": 72.4, "unit": "%"}, {"measurement": "immobility time in tail suspension test", "setting": "ICR mice", "result": "decrease the immobility time"}]}, {"smiles": "CCN(CC)CCc1n[nH]c2cccc(OC)c12", "note": "[Example P-42, 2-(4-methoxy-1H-indazol-3-yl)-N,N-diethylethan-1-amine]", "values": [{"measurement": "Emax", "setting": "5-HT2A", "result": 68.8, "unit": "%"}, {"measurement": "Emax", "setting": "5-HT2B [2]", "result": 0.24, "unit": "%"}, {"measurement": "Emax", "setting": "5-HT2C", "result": 70.5, "unit": "%"}]}, {"smiles": "CCN(CC)CCc1n[nH]c2cccc(O)c12", "note": "[Example P-43, 3-(2-(diethylamino)ethyl)-1H-indazol-4-ol]", "values": [{"measurement": "Emax", "setting": "5-HT2A", "result": 38.9, "unit": "%"}, {"measurement": "Emax", "setting": "5-HT2B [2]", "result": 8.01, "unit": "%"}, {"measurement": "Emax", "setting": "5-HT2C", "result": 28.8, "unit": "%"}]}, {"smiles": "CCCN(CCC)CCc1n[nH]c2cccc(OC)c12", "note": "[Example P-44, 2-(4-methoxy-1H-indazol-3-yl)-N,N-dipropylethan-1-amine]", "values": [{"measurement": "Emax", "setting": "5-HT2A", "result": 97.6, "unit": "%"}, {"measurement": "Emax", "setting": "5-HT2B [2]", "result": 39.4, "unit": "%"}, {"measurement": "Emax", "setting": "5-HT2C", "result": 77.2, "unit": "%"}]}, {"smiles": "CCCN(CCC)CCc1n[nH]c2cccc(O)c12", "note": "[Example P-45, 3-(2-(dipropylamino)ethyl)-1H-indazol-4-ol]", "values": [{"measurement": "Emax", "setting": "5-HT2A", "result": 100, "unit": "%"}, {"measurement": "Emax", "setting": "5-HT2B [2]", "result": 8.93, "unit": "%"}, {"measurement": "Emax", "setting": "5-HT2C", "result": 40.2, "unit": "%"}]}, {"smiles": "CCN(CC)CCc1n[nH]c2ccc(OC)cc12", "note": "[Example P-48, N,N-diethyl-2-(5-methoxy-1H-indazol-3-yl)ethan-1-amine]", "values": [{"measurement": "Emax", "setting": "5-HT2A", "result": 58.6, "unit": "%"}, {"measurement": "Emax", "setting": "5-HT2B [2]", "result": 16.1, "unit": "%"}, {"measurement": "Emax", "setting": "5-HT2C", "result": 4.22, "unit": "%"}]}, {"smiles": "CCCN(CCC)CCc1n[nH]c2ccc(OC)cc12", "note": "[Example P-49, N,N-dipropyl-2-(5-methoxy-1H-indazol-3-yl)ethan-1-amine]", "values": [{"measurement": "Emax", "setting": "5-HT2A", "result": 67.6, "unit": "%"}, {"measurement": "Emax", "setting": "5-HT2B [2]", "result": 30.7, "unit": "%"}, {"measurement": "Emax", "setting": "5-HT2C", "result": -0.46, "unit": "%"}]}, {"smiles": "CCN(C)CCc1n[nH]c2ccc(OC)cc12", "note": "[Example P-51, N-ethyl-2-(5-methoxy-1H-indazol-3-yl)-N-methylethan-1-amine]", "values": [{"measurement": "Emax", "setting": "5-HT2A", "result": 79.1, "unit": "%"}, {"measurement": "Emax", "setting": "5-HT2B [2]", "result": 30.9, "unit": "%"}, {"measurement": "Emax", "setting": "5-HT2C", "result": 24.6, "unit": "%"}]}, {"smiles": "COc1ccc2[nH]nc(CCN(C)C(C)C)c2c1", "note": "[Example P-52, N-(2-(5-methoxy-1H-indazol-3-yl)ethyl)-N-methylpropan-2-amine]", "values": [{"measurement": "Emax", "setting": "5-HT2A", "result": 77.3, "unit": "%"}, {"measurement": "Emax", "setting": "5-HT2B [2]", "result": 0.22, "unit": "%"}, {"measurement": "Emax", "setting": "5-HT2C", "result": 0.09, "unit": "%"}]}, {"smiles": "COc1cccc2[nH]nc(CCN(C)C)c12", "note": "[Example P-55, 2-(4-methoxy-1H-indazol-3-yl)-N,N-dimethylethan-1-amine]", "values": [{"measurement": "Emax", "setting": "5-HT2A", "result": 58.7, "unit": "%"}, {"measurement": "Emax", "setting": "5-HT2B [2]", "result": 1.35, "unit": "%"}, {"measurement": "Emax", "setting": "5-HT2C", "result": 83.6, "unit": "%"}]}]}
